From article PMC10605449 (Biosensors, 2023)
Changes are numbered by the printed parent chain.

Legend:
Assay type in all cases: binding
Settings in all cases: 15 °C
MARK3(48-370) Mutant 2 = molecular target: T1, MARK3(48-370) Mutant 2 (Homo sapiens, UniProt P27448, E139D/I62L/L128I/L130I/T204H/V116I/V205Q); assay: SPR Extract2Chip, cellular biotinylated MARK3 Mutant 2, GSK461364A injected
T1 construct: made in house; host or cells: E. coli Rosetta 2, co-expressed with BirA; soluble lysate used without purification
T1 sequence (P27448 48-370 I62L/V116I/L128I/L130I/E139D/T204H/V205Q): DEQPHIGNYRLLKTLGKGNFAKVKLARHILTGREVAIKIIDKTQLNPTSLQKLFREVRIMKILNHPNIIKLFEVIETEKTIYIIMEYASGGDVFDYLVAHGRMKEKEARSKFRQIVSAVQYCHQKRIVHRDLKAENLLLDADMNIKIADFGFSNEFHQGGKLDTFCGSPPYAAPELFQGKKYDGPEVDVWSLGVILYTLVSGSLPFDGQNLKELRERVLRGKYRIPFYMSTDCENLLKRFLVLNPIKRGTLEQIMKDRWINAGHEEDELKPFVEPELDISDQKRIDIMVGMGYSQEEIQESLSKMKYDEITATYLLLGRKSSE
Description: (§1) The cellular biotinylation of MARK3(48-370) kinase domain mutants followed the same approach as described for CypD. The 6 different mutants were expressed in Rosetta^TM 2 in PB media, and induced with 100 µM IPTG overnight at 18 °C.
(§2) The cellular biotinylated MARK3 NUAK2-like mutants were immobilized using the approach described in Section 2.5.2. The soluble cell lysates were diluted to a final concentration of 200 µg/mL, then injected over the neutravidin surfaces for 200 or 1400 s in order to reach 1000 to 2300 RU.
(§3) The interaction analysis cycles consisted of 140 s of sample injection followed by 350 to 600 s of running buffer flow. The running buffer was composed of 20 mM HEPES pH 7.4, 100 mM NaCl, 5 mM MgCl2, 1 mM EGTA, 1 mM DTT, 0.05% Tween-20, and 2% DMSO, and the experiment was performed at 15 °C.
(§4) All sensorgrams were processed by first subtracting the binding response recorded from the control surface (reference spot, where only the avidin protein is immobilized), followed by subtraction of the buffer blank injection from the reaction spot. All datasets were fitted to a simple 1:1 Langmuir interaction model to determine the kinetic rate constants, and the interaction affinity was additionally calculated at a steady state when applicable. […]

MARK3(48-370) Mutant 3 = molecular target: T2, MARK3(48-370) Mutant 3 (Homo sapiens, UniProt P27448, A68G/E139D/F67Y/I62L/L128I/L130I/N66T/T204H/V116I/V205Q); assay: SPR Extract2Chip, cellular biotinylated MARK3 Mutant 3, GSK461364A injected
T2 construct: made in house; host or cells: E. coli Rosetta 2, co-expressed with BirA; soluble lysate used without purification
T2 sequence (P27448 48-370 I62L/N66T/F67Y/A68G/V116I/L128I/L130I/E139D/T204H/V205Q): T1 sequence (P27448 48-370 I62L/V116I/L128I/L130I/E139D/T204H/V205Q) with N19T, F20Y, A21G
Description: as §1, §2, §3, §4

MARK3(48-370) Mutant 4 = molecular target: T3, MARK3(48-370) Mutant 4 (Homo sapiens, UniProt P27448, A68G/E139D/F199L/F67Y/I62L/L128I/L130I/N66T/T204H/V116I/V205Q); assay: SPR Extract2Chip, cellular biotinylated MARK3 Mutant 4, GSK461364A injected
T3 construct: made in house; host or cells: E. coli Rosetta 2, co-expressed with BirA; soluble lysate used without purification
T3 sequence (P27448 48-370 I62L/N66T/F67Y/A68G/V116I/L128I/L130I/E139D/F199L/T204H/V205Q): T1 sequence (P27448 48-370 I62L/V116I/L128I/L130I/E139D/T204H/V205Q) with N19T, F20Y, A21G, F152L
Description: as §1, §2, §3, §4

C[C@@H](Oc1cc(-n2cnc3ccc(CN4CCN(C)CC4)cc32)sc1C(N)=O)c1ccccc1C(F)(F)F [GSK461364A]
kd ± SD (MARK3(48-370) Mutant 2): 0.081 ± 0.015 s⁻¹ | kd ± SD (MARK3(48-370) Mutant 3): 0.028 ± 0.003 s⁻¹ | kd ± SD (MARK3(48-370) Mutant 4): 0.029 ± 0.0028 s⁻¹
